Measured values: article PMC6591251, “Discovery of potent necroptosis inhibitors targeting RIPK1 kinase activity for the treatment of inflammatory disorder and cancer metastasis” (Cell Death & Disease, 2019)
Converted amounts (≈) assume the structure as drawn. “And” between values parts separate entries of the source, which are not always exact repeats. Identical values can stand only once. Like-named read-outs stand apart in the source and are kept apart here.

Tests used:
[1] = Solubility in FaSSIF, LC/MS/MS; format: physicochemical; settings: for solubility: pH= 6.5 FaSSIF, LC/MS/MS, duplicates
Procedure: ^a Calculated by ACDlabs. ^b Data are measured duplicates in pH= 6.5 FaSSIF using LC/MS/MS. ^c Data are determined three times by SMP10 melting point apparatus.

human RIPK1 = target: T1, human RIPK1 (Homo sapiens, UniProt Q13546); assay: In vitro kinase activity assay (ADP-Glo); format: biochemical; settings: recombinant RIPK1; ATP 50 μM
T1 construct: purchased SignalChem
T1 sequence (Q13546 whole entry): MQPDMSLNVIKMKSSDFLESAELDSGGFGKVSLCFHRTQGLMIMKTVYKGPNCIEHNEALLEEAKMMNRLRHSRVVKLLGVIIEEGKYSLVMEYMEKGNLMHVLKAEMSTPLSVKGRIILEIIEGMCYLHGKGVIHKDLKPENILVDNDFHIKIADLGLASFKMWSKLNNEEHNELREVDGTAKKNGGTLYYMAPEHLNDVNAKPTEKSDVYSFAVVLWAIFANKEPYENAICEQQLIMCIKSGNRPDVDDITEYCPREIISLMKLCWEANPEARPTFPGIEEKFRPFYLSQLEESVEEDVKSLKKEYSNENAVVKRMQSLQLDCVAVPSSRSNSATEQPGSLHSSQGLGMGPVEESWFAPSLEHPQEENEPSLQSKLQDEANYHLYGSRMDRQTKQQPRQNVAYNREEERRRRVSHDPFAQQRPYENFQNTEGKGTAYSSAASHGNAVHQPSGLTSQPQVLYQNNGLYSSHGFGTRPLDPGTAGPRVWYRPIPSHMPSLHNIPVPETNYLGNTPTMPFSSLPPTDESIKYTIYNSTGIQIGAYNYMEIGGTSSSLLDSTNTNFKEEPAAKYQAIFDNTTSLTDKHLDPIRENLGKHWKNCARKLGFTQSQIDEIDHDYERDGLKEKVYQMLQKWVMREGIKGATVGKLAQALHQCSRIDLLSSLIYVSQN
Procedure: Having shown that PK6 and PK68 can inhibit activation of both RIPK1 and RIPK3 during TNF-mediated necroptosis, we sought to determine if PK6 and PK68 can directly target RIPK1 or and RIPK3 by performing in vitro kinase assays. Both PK6 and PK68 were able to block the kinase activities of both human RIPK1 and mouse RIPK1 in vitro (Fig. 4a and Supplementary Fig. 19).
(§1) Recombinant proteins were incubated with PK6 and PK68 as indicated. […] NIH3T3-RIPK3 cells were pretreated with indicated compounds for 1 h and subsequently treated with T (40 ng/ml)/S (100 nM)/Z (20 μM) or AP20187 (100 nM) for 24 h. Cell viability was determined by measuring ATP levels. e PK6 and PK68 have no effect on MLKL dimerization-induced cell death in HeLa-MLKL (1–190) cells that stably express MLKL (1–190aa) fused to DmrB. HeLa-MLKL (1–190) cells were pretreated with indicated compounds for 1 h and subsequently treated with AP20187 (100 nM) for 24 h. Cell viability was determined by measuring ATP levels.
The recombinant RIPK1 or RIPK3 protein was incubated with DMSO or the indicated compound for 15 min in the assay buffer (25 mM HEPES pH 7.2, 20 mM MgCl2, 12.5 mM MnCl2, 12.5 mM β-glycerol phosphate, 5 mM EGTA, 2 mM EDTA, and 2 mM DTT). […] The luminescence was measured to calculate the kinase activity after the addition of the ADP-Glo Kinase Assay kit following the manufacturer’s instructions (Promega).

HT-29 cells = assay: TNF-induced necroptosis (TNFα/Smac mimetic/z-VAD), cell viability by ATP levels; format: cell-based, human
Procedure: Necroptosis is tightly regulated by RIP kinases including RIPK1 and RIPK3. To develop new necroptosis inhibitors, we screened a small-molecule library of around 240 potential kinase inhibitors that were designed with novel structures to affect the ATP-binding pocket of protein kinases. Human colon cancer HT-29 cells were treated with these compounds for […], followed by treatment with necroptotic stimuli (TNFα, Smac mimetic, and z-VAD) that are known to activate TNF-mediated necroptosis. After 48 h, cell viability was analyzed by monitoring ATP levels.
Fig. 1 PK6 efficiently blocks TNF-α induced necroptosis in both human and mouse cells. a HT-29 cells cultured in 96-well plates were pretreated with the indicated compounds (10 μM) from a library consisting of ~240 compounds that we designed with novel structures for 1 h and subsequently treated with 40 ng/ml TNF-α (T), 100 nM Smac mimetic (S), and the caspase inhibitor 20 μM z-VAD(Z) for 48 h. Cell viability was assessed by measuring ATP levels. Data are represented as the mean ± standard deviation of duplicates. b Chemical structure of PK6. c Dose response curve and EC50 ± SD value for PK6 in TNF-α induced necroptosis in HT-29 cells. Cells were pretreated with indicated concentrations of PK6 for 1 h prior to the treatment with T (40 ng/ml), S (100 nM), and Z (20 μM) for 48 h. Cell viability was assessed by measuring ATP levels. d U937 cells were pretreated with indicated concentrations of PK6 for 1 h followed by the treatment with T (40 ng/ml), S (100 nM), and Z (20 μM) for 24 h. e MEF cells were pretreated with indicated concentrations of PK6 for 1 h followed by the treatment with T (40 ng/ml), S (100 nM), and Z (20 μM) for 24 h. f L929 cells were pretreated with indicated concentrations of PK6 for 1 h prior to the treatment with S (100 nM) and Z (20 μM) for 24 h.
Fig. 2 Chemical optimization of PK6 leads to improvements in anti-necroptotic activity. a, b The effects of the indicated compounds on cell viability were examined in HT-29 cells (a) and L929 cells (b). HT-29 cells were treated as indicate for 48 h and L929 cells for 24 h. Cell viability was assessed by measuring ATP levels. Data are represented as the mean ± standard deviation of triplicates. c Structure and EC50 ± SD value of each compound are shown in the table. EC50 values are the average of at least two independent determinations. d Lead optimization of PK6 TEXT PRINTED IN THE PICTURE: (c) PK6: EC50(nM) HT-29: 1200±53; EC50(nM) L929: 760±26 | (c) PK67: EC50(nM) HT-29: 250±6.3; EC50(nM) L929: 130±6.8 | (c) PK81: EC50(nM) HT-29: 120±7.6; EC50(nM) L929: 20±0.98 | (c) PK84: EC50(nM) HT-29: 97±6.7; EC50(nM) L929: 45±2.1 | (c) PK93: EC50(nM) HT-29: 130±36; EC50(nM) L929: 30±7.4 | (c) PK86: EC50(nM) HT-29: 73±3.9; EC50(nM) L929: 15±1.0 | (c) PK68: EC50(nM) HT-29: 23±1.4; EC50(nM) L929: 13±0.85
(§2) The cell viability was analyzed by using the CellTiter-Glo Luminescent Cell Viability Assay kit following the manufacturer’s instructions (Promega). Luminescence was measured with SpectraMax i3x (Molecular Devices).

NIH3T3-RIPK3 cells = assay: RIPK3 dimerization-induced necroptosis (AP20187); format: cell-based, mouse; settings: AP20187 100 nM, 24 h
Procedure: as §1
Further, we evaluated the selectivity of PK68 against a panel of 369 kinases provided by Reaction Biology (at 1000 nM). […] In addition, we followed on some of the active “hits” from the kinome scan. PK68 was tested against TNIK and TRKA by a reputable CRO company. […] RIPK1 is known to mediate NF-κB activation independently of its kinase activity. […] It has been shown that homodimerization of RIPK3 or MLKL induced by the dimerizer leads to necroptosis bypassing the upstream signals[10],[37]. […] This dimerized RIPK3-induced necroptosis was blocked by RIPK3 inhibitor GSK873 but was not blocked by the RIPK1 inhibitor necrostatin-1. […] (Fig. 4e).
as §2

| Compound | solubility (in words) [1] | solubility [1] [µg/mL] | IC50 (human RIPK1) | EC50 (HT-29 cells; Homo sapiens, HT-29, 48 h, T 40 ng/ml, S 100 nM, Z 20 μM, 48 h, read-out: EC50, TNF-induced necroptosis) [nM] | RIPK3 dimerization-induced necroptosis (NIH3T3-RIPK3 cells) | EC50 (HT-29 cells; Homo sapiens, HT-29, 48 h, T/S/Z 48 h, read-out: EC50(nM) HT-29) [nM] | EC50 (HT-29 cells; T/S/Z 48 h, read-out: EC50(nM) HT-29) [nM] |
| --- | --- | --- | --- | --- | --- | --- | --- |
| CC(=O)Nc1nc2ccc(-c3cnc(Cl)c(NC(=O)Cc4ccccc4)c3)cc2s1 [PK6, N-(5-(2-acetamidobenzo[d]thiazol-6-yl)-2-chloropyridin-3-yl)-2-phenylacetamide] | poor | 0.09 (≈ 0.206 µM) | 200 ± 130 nM | ~1200 | neither PK6 nor PK68 blocked | – | – |
| CC(=O)Nc1nc2ccc(-c3cnc(C)c(NC(=O)OC4CCCCC4)c3)cc2s1 [PK68, cyclohexyl (5-(2-acetamidobenzo[d]thiazol-6-yl)-2-methylpyridin-3-yl)carbamate] | – | 0.56 (≈ 1.32 µM) | ~90 nM and 90 nM | – | neither PK6 nor PK68 blocked | 23 | ~20 |
